{"source": "patent US20060216792A1", "about": "“Process for producing 2-0-alpha-d-glucopyranosyl-l-ascorbic acid” (priority 2002, published 2006)", "assay": "properties of crystalline AA-2G (stability, hygroscopicity, solubility)", "assay_type": "physicochemical", "source_text": "Different from the case of L-ascorbic acid, AA-2G hardly causes Maillard reaction. […] Also, by using AA-2G together with vitamins E and P, those biological activities can be increased. • (4) It is possible that AA-2G is produced and metabolized in living bodies when L-ascorbic acid and α-glucosyl saccharide are orally in taken. […] AA-2G can be advantageously used as vitamin C-reinforcement, taste-improving agent, acidifier, stabilizer, and the like for vitamin in the form of powder, granule, tablet, and the like, or foods such as cream, chocolate, chewing gum, instant juice, instant seasoning, and the like. • (6) Crystalline AA-2G is substantially non- or hardly hygroscopic.", "data": [{"molecule": "O=C1O[C@H]([C@@H](O)CO)C(O)=C1O[C@H]1O[C@H](CO)[C@@H](O)[C@H](O)[C@H]1O", "note": "[AA-2G, 2-O-α-D-glucopyranosyl-L-ascorbic acid]", "values": [{"measurement": "solubility in water", "value": "high solubility"}, {"measurement": "stability", "setting": "crystalline product of Example 1", "value": "sufficient stability"}]}]}
